The record followed here is US20120083525A1, “COMPOSITION FOR PREVENTING OR TREATING OBESITY-RELATED DISEASES MEDIATED BY THE ACTIVATION OF AMPK AND INCLUDING 2,5-BIS-ARYL-3,4-DIMETHYLTETRAHYDROFURAN LIGNANS AS ACTIVE INGREDIENTS” (Amorepacific Corporation, priority 2009, published 2012).

The experiment deals with high fat diet-induced obese model. Nature of the experiment: Anti-obesity effect in diet-induced obese (DIO) model, body weight change. Particulars: 100 mg/kg/day oral.

Protocol: For the oral administration, the substances were dissolved in a 5% aqueous solution of methyl cellulose (Sigma Co., USA). 7-week-old male C57BL/6J mice were prepared for test, with 10 heads per group. After an accommodation period of 1 week, the mice were kept in individual cages and maintained with 12/12-hr light-dark cycles (lighting from 7 am to 5 pm). […] The corresponding substance was orally administered once a day at regular hours (10 am) for 8 weeks. Body weight was measured once a week (11 am). After 8 weeks of administration, the body weight of the test groups and the control group was analyzed.

In the case of `COc1cc(C[C@H](C)[C@H](C)Cc2ccc3c(c2)OCO3)ccc1O` [Macelignan, macelignan], the “Body weight change (g) after oral administration, 14 days” value (14 days) was 4.00 g. Also, for the setting “21 days”, the “Body weight change (g) after oral administration, 21 days” value was found to be 5.31 g. In addition, the “Body weight change (g) after oral administration, 28 days” value (28 days) is given as 6.52 g. Also, the “Body weight change (g) after oral administration, 35 days” value (35 days) was determined as 8.91 g. For the same molecule, the “Body weight change (g) after oral administration, 42 days” value (42 days) stood at 9.70 g. Further, the “Body weight change (g) after oral administration, 49 days” value (49 days) worked out at 10.63 g.
